Where “and” joins values, the source holds several entries; their conditions need not be identical. Equal values may be shown once.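 Assay format: 96-well plates, 48-hour exposure. The concentration for 50% growth inhibition is given as GI50. TGI: total growth inhibition.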
Key:
Assay in all cases: growth of human tumour cells (NCI), 48 h; in the data active means GI50 below about 0.43 µM; inactive means the rest
[1] = system: SK-MEL-5 melanoma
[2] = system: TK-10 renal
[3] = system: SF-268 CNS
[4] = system: NCI-H23 lung
[5] = system: DU-145 prostate
[6] = system: MALME-3M melanoma
[7] = system: OVCAR-8 ovarian
[8] = system: SK-OV-3 ovarian
[9] = system: LOX IMVI melanoma
[10] = system: MDA-N

COc1ccc(OC)c2c(C(C)=O)cccc12
> 100 µM: TGI [1] | TGI [2] | TGI [3] | TGI [4] | TGI [5] | TGI [6] | TGI [7] | TGI [8]

Cc1c2cc[n+](Cc3ccc(I)cc3)cc2c(C)c2c1[nH]c1ccccc12
11.8 µM: TGI [7]
> 25 µM: TGI [9]
1.81 µM: TGI [6]
7.18 µM: TGI [3]
> 13.5 µM: TGI [8]
1.33 µM: TGI [1]
9.13 µM: TGI [4]

CC(C)c1cc(=O)[nH]c2cc(N)ccc12
> 100 µM: TGI [1] | TGI [10] | TGI [4] | TGI [9] | TGI [5] | TGI [7]

COCN1C(=O)[C@@H]2CCCN2C(=O)c2ccc(N)cc21
> 100 µM: TGI [1] | TGI [2] | TGI [3] | TGI [10] | TGI [4] | TGI [9] | TGI [5] | TGI [7] | TGI [8]

C=C1OC2OC(C)C(NC(=O)OCC(Cl)(Cl)Cl)C(OC(C)=O)C2O1 (stereo not given)
> 100 µM: TGI [1] | TGI [2] | TGI [3] | TGI [4] | TGI [9] | TGI [5] | TGI [6] | TGI [7] | TGI [8]

Cc1ccc(C)c2c1C1CCCCC3(OCCCO3)C21O (stereo not given)
> 100 µM: TGI [1] | TGI [2] | TGI [3] | TGI [4] | TGI [9] | TGI [6] | TGI [7] | TGI [8]

CCCC(=O)Nc1cc(C(=O)N2C[C@H]3C[C@@]34C2=CC(=O)c2[nH]cc(C)c24)n(COC)c1
5.36 µM: TGI [8]
2.87 µM: TGI [2]
active: GI50 [3] 0.0847 µM | GI50 [10] 0.164 µM | GI50 [4] 0.0328 µM | GI50 [5] 0.0776 µM | GI50 [7] 0.13 µM
0.452 µM and 0.213 µM: TGI [4]
0.439 µM: TGI [6]
0.343 µM and 0.392 µM: TGI [7]
1.59 µM and 0.316 µM: TGI [10]
1.5 µM and 11.1 µM: TGI [3]

Nc1nc(SCc2ccccc2Cl)c2ncn(C3OC(CO)C(O)C3O)c2n1 (stereo not given)
> 100 µM: TGI [1] | TGI [2] | TGI [3] | TGI [4] | TGI [9] | TGI [6] | TGI [7] | TGI [8]

Cc1ccc(S(=O)(=O)OC[C@@]2(C)CC[C@]3(C)CC[C@]4(C)C(=C3C2)C=C[C@@H]2[C@@]3(C)CCCNC(C)(C)[C@@H]3CC[C@]24C)cc1
3.42 µM: TGI [4]
3.25 µM: TGI [8]
4.12 µM: TGI [3]
3.4 µM: TGI [5]
3.59 µM: TGI [2]
3.26 µM: TGI [6]
inactive: GI50 [2] 1.88 µM | GI50 [3] 1.95 µM | GI50 [4] 1.82 µM | GI50 [5] 1.81 µM | GI50 [6] 1.68 µM | GI50 [8] 1.79 µM

CCOC(=O)c1ccc(N(CCOS(C)(=O)=O)CCOS(C)(=O)=O)cc1
47 µM: TGI [5]
> 100 µM: TGI [1] | TGI [2] | TGI [3] | TGI [10] | TGI [4] | TGI [9] | TGI [6] | TGI [7]

Cc1sc(/N=C/C2=C(O)CC(C)(C)CC2=O)nc1-c1ccccc1
> 100 µM: TGI [1] | TGI [2] | TGI [3] | TGI [10] | TGI [4] | TGI [9] | TGI [5] | TGI [7] | TGI [8]

Cc1ccc(S(=O)(=O)N/N=C2\C=CC3(CC2)C(=O)N(I)c2ccccc23)cc1 (stereo not given)
6.82 µM: TGI [6]
> 100 µM: TGI [1] | TGI [2] | TGI [3] | TGI [10] | TGI [4] | TGI [9] | TGI [7] | TGI [8]

O=C(O)CN1C(=O)c2ccc(NC(=O)C(=O)O)cc2S1(=O)=O
> 100 µM: TGI [1] | TGI [2] | TGI [3] | TGI [10] | TGI [4] | TGI [9] | TGI [5] | TGI [6] | TGI [8]

CNC(=S)N/N=C/C(C)=N/NC(=S)NC
> 100 µM: TGI [1] | TGI [2] | TGI [3] | TGI [4] | TGI [9] | TGI [6] | TGI [8]

COc1cc2c(c(OC)c1OC)C(=O)c1c(O)cc(C)c(OC)c1C2=O
> 100 µM: TGI [1] | TGI [2] | TGI [3] | TGI [10] | TGI [4] | TGI [9] | TGI [5] | TGI [6] | TGI [7]

CC1=NN(c2nc(N)nc(CO)n2)C(C)(C)C1
> 100 µM: TGI [1] | TGI [2] | TGI [3] | TGI [4] | TGI [9] | TGI [5] | TGI [7] | TGI [8]

Cc1c(C#N)c2nnn(-c3cccc(Cl)c3)c(=O)n2c1-c1ccccc1
40.4 µM: TGI [5]
> 100 µM: TGI [2] | TGI [3] | TGI [4] | TGI [9] | TGI [6] | TGI [7] | TGI [8]
19.2 µM: TGI [1]

COC(=O)CN1CCN(c2cccc3c2CCCC3)CC1
60 µM: TGI [1]
48.7 µM: TGI [4]
> 100 µM: TGI [2] | TGI [10] | TGI [9] | TGI [6] | TGI [7]

CCCCCCCCCCCC1N=C(N)N=C(N)N1c1cccc(Br)c1 (stereo not given)
2.42 µM: TGI [5]
2.69 µM: TGI [4]
inactive: GI50 [2] 1.56 µM | GI50 [3] 1.28 µM | GI50 [4] 1.18 µM | GI50 [5] 1.16 µM | GI50 [6] 1.77 µM | GI50 [7] 1.73 µM | GI50 [8] 1.92 µM
3.31 µM: TGI [7]
3.38 µM: TGI [6]
2.94 µM: TGI [2]
2.7 µM: TGI [3]
4.28 µM: TGI [8]

CC(=O)N[C@@H](Cc1ccc(O)cn1)C(=O)NCc1ccc(Cl)cc1
> 100 µM: TGI [1] | TGI [2] | TGI [10] | TGI [4] | TGI [9] | TGI [5] | TGI [6] | TGI [7] | TGI [8]

CNC(=O)OCc1cnc([N+](=O)[O-])n1C
> 100 µM: TGI [1] | TGI [2] | TGI [3] | TGI [10] | TGI [4] | TGI [9] | TGI [5] | TGI [6] | TGI [7]

CO[C@@]12C[C@H](CNC(=O)c3ccc[nH]3)O[C@@H]1NC(=O)N2
> 100 µM: TGI [1] | TGI [2] | TGI [3] | TGI [4] | TGI [9] | TGI [5] | TGI [6] | TGI [7] | TGI [8]

Nc1nc(Cl)c(CO)c(NCC2(CO)CCC2)n1
> 100 µM: TGI [1] | TGI [2] | TGI [3] | TGI [10] | TGI [4] | TGI [9] | TGI [5] | TGI [6] | TGI [7]
